Patent publication US7880002B2, “Substituted piperazinyl-pyrrolidine compounds useful as chemokine receptor antagonists” (Millennium Pharmaceuticals, Inc., priority 2004, dated 2011)

What follows are compounds tested against T1, CCR1 (Homo sapiens, UniProt P32246) (assay: CCR1 inhibition (THP-1 FLIPR assay / THP-1 whole cell radioligand binding assay; the patent does not say which gave the values)). Conditions: threshold list, less than 100 nm; compounds of Table 1; read-out: inhibitory activity.
T1 construct: a monocytic derived cell line that endogenously expresses CCR1; host or cells: THP-1 cells
T1 sequence (P32246 1-355): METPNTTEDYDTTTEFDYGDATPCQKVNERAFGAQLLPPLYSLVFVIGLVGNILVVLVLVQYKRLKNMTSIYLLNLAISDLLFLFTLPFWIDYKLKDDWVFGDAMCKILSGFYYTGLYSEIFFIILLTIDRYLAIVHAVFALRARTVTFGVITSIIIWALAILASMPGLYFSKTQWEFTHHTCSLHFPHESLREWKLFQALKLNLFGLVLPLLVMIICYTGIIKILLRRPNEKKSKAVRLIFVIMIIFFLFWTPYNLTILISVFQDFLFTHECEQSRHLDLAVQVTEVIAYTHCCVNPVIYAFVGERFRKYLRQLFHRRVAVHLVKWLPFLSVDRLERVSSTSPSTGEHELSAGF
Format: cell-based
Protocol: The primary screening assay is a FLIPR® (Fluorometric Imaging Plate Reader, available from Molecular Devices Corporation, Sunnyvale, Calif.) assay using THP-1 cells (ATCC, Catalog No. TIB 202), a monocytic derived cell line that endogenously expresses CCR1.
The cells were resuspended at 1×10^6 cells/ml in dye loading media (growth media (RPMI+10% FBS (Fetal Bovine serum)+5.5×10^−5M 2-mercaptoethanol)+10 mM HEPES (N-2-hydroxyethylpiperazine-N′-2-ethane-sulfonic acid)+2.5 mM probenecid+fluo-3 (1:250)). The cells were incubated for 1 hour at 37° C. and then washed in FLIPR wash buffer (100 mL 10× HBSS (Hanks Buffered Saline Solution) (w/Ca++/Mg++)+20 mL 1M HEPES+1 g BSA+10 mL 250 mM probenecid+water (to make 1 L)) and plated at 50,000 cells/well in black/clear 384 well plates. The plates were transferred to FLIPR where the ability of different concentrations of compounds to inhibit RANTES induced calcium flux was assessed. Inhibition of the CCR1 response was reflected by a decrease of the fluorescence signal relative to the positive controls (RANTES alone).
THP-1 Whole Cell Radioligand Binding Assay
The cells were washed with PBS (phosphate buffered saline) and resuspended in binding buffer (10 mM HEPES pH 7.2, 1× HBSS (w/Ca^2+, Mg^2+) 0.5% BSA, 0.02% Na-azide) at 4×10^6 cells/ml (for 200, 000 cells/well). Cells were incubated with 0.1 to 0.2 nM [^125I]-labeled MIP-1α with or without unlabeled competitor (MIP-1α) or various concentrations of compounds for 60 minutes at room temperature. The assay was terminated by vacuum filtration through glass fiber filters (GF/B, Packard) which were presoaked in 0.3% polyethyleneimine. The filters were washed with wash buffer (10 mM HEPES, pH 7.2, 1 mM CaCl2, 5 mM MgCl2 0.5M NaCl), dried and the amount of bound radioactivity was determined by scintillation counting.

IC50, < 100 nM:
O=C(O)c1ccc2nc(C(F)(F)F)nc(N3C[C@@H](O)[C@H](N4CCN(C(=O)c5ccc(Cl)cc5)CC4)C3)c2c1 (stereo in doubt) [Example 181, 4-{3-[4-(4-chlorobenzoyl)piperazin-1-yl]-4-hydroxypyrrolidin-1-yl}-2-(trifluoromethyl)quinazoline-6-carboxylic acid]
O=C(c1ccc(Cl)cc1)N1CCN([C@H]2CN(c3ccc4cccc(Cl)c4n3)C[C@@H]2O)CC1 (stereo in doubt) [Example 85, 4-[4-(4-chlorobenzoyl)piperazin-1-yl]-1-(8-chloroquinolin-2-yl)pyrrolidin-3-ol]
Cc1cc(C(F)(F)F)nc(N2C[C@H](O)[C@@H](N3CCN(C(=O)c4ccc(Cl)cc4)CC3)C2)n1 [Example 150, (3S,4S)-4-[4-(4-chlorobenzoyl)piperazin-1-yl]-1-[4-methyl-6-(trifluoromethyl)pyrimidin-2-yl]pyrrolidin-3-ol]
O=C(c1ccc(Cl)cc1)N1CCN([C@H]2CN(c3nc(C(F)(F)F)nc4cccc(F)c34)C[C@@H]2O)CC1 (stereo in doubt) [Example 172, 4-[4-(4-chlorobenzoyl)piperazin-1-yl]-1-[5-fluoro-2-(trifluoromethyl)quinazolin-4-yl]pyrrolidin-3-ol]
CC(C)(C)c1cc(C(F)(F)F)nc(N2CC(O)C(N3CCN(C(=O)c4ccc(Cl)cc4)CC3)C2)n1 (stereo not drawn) [Example 129, 1-[4-tert-butyl-6-(trifluoromethyl)pyrimidin-2-yl]-4-[4-(4-chlorobenzoyl)piperazin-1-yl]pyrrolidin-3-ol]
O=C(c1ccc(Cl)cc1)N1CCN([C@@H]2CN(c3nc(-c4ccccc4)nc4ccccc34)C[C@H]2O)CC1 [Example 101, 4-[4-(4-chlorobenzoyl)piperazin-1-yl]-1-(2-phenylquinazolin-4-yl)pyrrolidin-3-ol]
Cc1nc(C(F)(F)F)nc(N2C[C@H](O)[C@@H](N3CCN(C(=O)c4ccc(Cl)cc4)CC3)C2)c1C [Example 157, (3S,4S)-4-[4-(4-chlorobenzoyl)piperazin-1-yl]-1-[5,6-dimethyl-2-(trifluoromethyl)pyrimidin-4-yl]pyrrolidin-3-ol]
CNC(=O)Nc1ccc2nc(C(F)(F)F)nc(N3C[C@H](O)[C@@H](N4CCN(C(=O)c5ccc(Cl)cc5)CC4)C3)c2c1 (stereo in doubt) [Example 196, N-[4-{3-[4-(4-chlorobenzoyl)piperazin-1-yl]-4-hydroxypyrrolidin-1-yl}-2-(trifluoromethyl)quinazolin-6-yl]-N′-methylurea]
O=C(c1ccc(Cl)cc1)N1CCN([C@H]2CN(c3nc(C(F)(F)F)nc4cc(F)c(F)cc34)C[C@@H]2O)CC1 (stereo in doubt) [Example 179, 4-[4-(4-chlorobenzoyl)piperazin-1-yl]-1-[6,7-difluoro-2-(trifluoromethyl)quinazolin-4-yl]pyrrolidin-3-ol]
O=C(c1ccc(Cl)cc1)N1CCN([C@@H]2CN(c3nc(Nc4ccc(Cl)cc4)cc(C(F)(F)F)n3)C[C@H]2O)CC1 (stereo in doubt) [Example 106, 4-[4-(4-chlorobenzoyl)piperazin-1-yl]-1-[4-[(4-chlorophenyl)amino]-6-(trifluoromethyl)pyrimidin-2-yl]pyrrolidin-3-ol]
O=C(c1ccc(Cl)cc1)N1CCN([C@@H]2CN(c3nc(C(F)(F)F)nc4ccc(N5CCNC5=O)cc34)C[C@H]2O)CC1 (stereo in doubt) [Example 202, 1-[4-{3-[4-(4-chlorobenzoyl)piperazin-1-yl]-4-hydroxypyrrolidin-1-yl}-2-(trifluoromethyl)quinazolin-6-yl]imidazolidin-2-one]
O=C(c1ccc(Cl)cc1)N1CCN([C@H]2CN(c3nc(C(F)(F)F)nc4cc(F)ccc34)C[C@@H]2O)CC1 (stereo in doubt) [Example 171, 4-[4-(4-chlorobenzoyl)piperazin-1-yl]-1-[7-fluoro-2-(trifluoromethyl)quinazolin-4-yl]pyrrolidin-3-ol]
O[C@@H]1CN(c2ncnc3cc(Cl)ccc23)C[C@H]1N1CCN(Cc2ccc(F)cc2)CC1 (stereo in doubt) [Example 115, 1-(7-chloroquinazolin-4-yl)-4-[4-(4-fluorobenzyl)piperazin-1-yl]pyrrolidin-3-ol]
NC(=O)c1ccc2nc(C(F)(F)F)nc(N3C[C@@H](O)[C@H](N4CCN(C(=O)c5ccc(Cl)cc5)CC4)C3)c2c1 [Example 189, 4-{(3R,4R)-3-[4-(4-chlorobenzoyl)piperazin-1-yl]-4-hydroxypyrrolidin-1-yl}-2-(trifluoromethyl)quinazoline-6-carboxamide]
O=C(c1ccc(Cl)cc1)N1CCN([C@@H]2CN(c3ncnc4cc(F)ccc34)C[C@H]2O)CC1 (stereo in doubt) [Example 86, 4-[4-(4-chlorobenzoyl)piperazin-1-yl]-1-(7-fluoroquinazolin-4-yl)pyrrolidin-3-ol]
O[C@H]1CN(c2ncnc3cc(Cl)ccc23)C[C@@H]1N1CCC(Oc2ccc(Cl)cc2)CC1 (stereo in doubt) [Example 80, 4-[4-(4-chlorophenoxy)piperidin-1-yl]-1-(7-chloroquinazolin-4-yl)pyrrolidin-3-ol]
O=C(c1ccc(Cl)cc1)N1CCN([C@@H]2CN(c3nc(C(F)(F)F)nc4ccccc34)C[C@H]2O)CC1 (stereo in doubt) [Example 94, 4-[4-(4-chlorobenzoyl)piperazin-1-yl]-1-[2-(trifluoromethyl)quinazolin-4-yl]pyrrolidin-3-ol]
O=C(c1ccc(Cl)cc1)N1CCN([C@@H]2CN(c3ncnc4ccc(Cl)cc34)C[C@H]2O)CC1 (stereo in doubt) [Example 81, 4-[4-(4-chlorobenzoyl)piperazin-1-yl]-1-(6-chloroquinazolin-4-yl)pyrrolidin-3-ol]
O=C(c1ccc(Cl)cc1)N1CCN([C@H]2CN(c3cc(C(F)(F)F)nc4c(C(F)(F)F)cccc34)C[C@@H]2O)CC1 (stereo in doubt) [Example 26, 1-[2,8-bis(trifluoromethyl)quinolin-4-yl]-4-[4-(4-chlorobenzoyl)piperazin-1-yl]pyrrolidin-3-ol]
CN(C)c1ccc2nc(C(F)(F)F)nc(N3C[C@H](O)[C@@H](N4CCN(C(=O)c5ccc(Cl)cc5)CC4)C3)c2c1 (stereo in doubt) [Example 187, 4-[4-(4-chlorobenzoyl)piperazin-1-yl]-1-[6-(dimethylamino)-2-(trifluoromethyl)quinazolin-4-yl]pyrrolidin-3-ol]
CC(C)c1cc(C(F)(F)F)nc(N2C[C@@H](O)[C@H](N3CCN(C(=O)c4ccc(Cl)cc4)CC3)C2)n1 (stereo in doubt) [Example 123, 4-[4-(4-chlorobenzoyl)piperazin-1-yl]-1-[4-isopropyl-6-(trifluoromethyl)pyrimidin-2-yl]pyrrolidin-3-ol]
